Source: US6908926B1, “Substituted imidazoles, their preparation and use” (Novo Nordisk A/S, priority 1999, dated 2005)

Structure (SMILES) | melting point
Cc1ccc(COC(=O)N2CCc3[nH]cnc3C2)c(C)c1.O=C(O)C(=O)O [Example 28, 4,5,6,7-Tetrahydroimidazo[4,5-c]pyridine-5-carboxylic Acid 2,4-dimethylbenzyl Ester Oxalate] | 176 to 178 °C
Cc1cccc(CCOC(=O)N2CCc3[nH]cnc3C2)c1.O=C(O)C(=O)O [Example 24, 4,5,6,7-Tetrahydroimidazo[4,5-c]pyridine-5-carboxylic Acid 2-(3-methylphenyl)ethyl Ester Oxalate] | 155 to 157 °C
COc1cccc(COC(=O)N2CCc3[nH]cnc3C2)c1.O=C(O)C(=O)O [Example 19, 4,5,6,7-Tetrahydroimidazo[4,5-c]pyridine-5-carboxylic Acid 3-methoxybenzyl Ester Oxalate] | 163 to 165 °C
CCc1ccc(COC(=O)N2CCc3nc[nH]c3C2)cc1.O=C(O)C(=O)O [Example 34, 4,5,6,7-Tetrahydroimidazo[4,5-c]pyridine-5-carboxylic Acid 4-ethylbenzyl Ester Oxalate] | 171 to 173 °C
O=C(O)C(=O)O.O=C(OCCc1cccs1)N1CCc2nc[nH]c2C1 [Example 36, 4,5,6,7-Tetrahydroimidazo[4,5-c]pyridine-5-carboxylic Acid 2-thiophen-2-ylethyl Ester Oxalate] | 173 to 175 °C
CC(C)c1ccc(COC(=O)N2CCc3nc[nH]c3C2)cc1.O=C(O)C(=O)O [Example 31, 4,5,6,7-Tetrahydroimidazo[4,5-c]pyridine-5-carboxylic Acid 4-isopropylbenzyl Ester Oxalate] | 166 to 168 °C
O=C(O)C(=O)O.O=C(OCCc1ccsc1)N1CCc2nc[nH]c2C1 [Example 37, 4,5,6,7-Tetrahydroimidazo[4,5-c]pyridine-5-carboxylic Acid 2-thiophen-3-ylethyl Ester Oxalate] | 193 to 194 °C

Results, then the molecule that gave them:

melting point | Structure (SMILES)
169 to 171 °C | Cc1cccc(COC(=O)N2CCc3[nH]cnc3C2)c1.O=C(O)C(=O)O [Example 21, 4,5,6,7-Tetrahydroimidazo[4,5-c]pyridine-5-carboxylic Acid 3-methylbenzyl Ester Oxalate]
174 to 176 °C | O=C(O)C(=O)O.O=C(OCCC1CCCCC1)N1CCc2nc[nH]c2C1 [Example 40, 4,5,6,7-Tetrahydroimidazo[4,5-c]pyridine-5-carboxylic Acid 2-cyclohexylethyl Ester Oxalate]
176 to 178 °C | O=C(O)C(=O)O.O=C(OCC1CCCCC1)N1CCc2nc[nH]c2C1 [Example 41, 4,5,6,7-Tetrahydroimidazo[4,5-c]pyridine-5-carboxylic Acid Cyclohexylmethyl Ester Oxalate]
173 to 175 °C | O=C(O)C(=O)O.O=C(OCc1ccccc1Cl)N1CCc2nc[nH]c2C1 [Example 42, 4,5,6,7-Tetrahydroimidazo[4,5-c]pyridine-5-carboxylic Acid 2-chlorobenzyl Ester Oxalate]
